Earlier results, collected in patent US7138151B2, “Calcium-fortified acidic beverages” (Unilab Pharmatech, Ltd., priority 2002, dated 2006).

Conditions: initially clear metastable solution from citric acid and calcium base

In the case of `O=C([O-])CC(O)(CC(=O)[O-])C(=O)[O-].O=C([O-])CC(O)(CC(=O)[O-])C(=O)[O-].[Ca+2].[Ca+2].[Ca+2]` [in-situ solubilized calcium citrate, calcium citrate], the “time at which calcium citrate starts to precipitate out of solution” value is given as no more than 24 h.
